Where “and” joins values, the source holds several entries; their conditions need not be identical. Equal entries are not always repeated.
Key:
Rattus norvegicus = settings: for LD50: acute, oral, mortality
Apis mellifera = settings: acute, mortality
Bibionidae = settings: chronic/long-term; duration: 28 days; other
Canidae = settings: chronic; duration: 1 years; oral; Dog Other; organ weight
Cyprinodon variegatus = settings: acute; duration: 96 hours; mortality
Daphnia magna = settings: chronic/long-term; duration: 21 days; reproduction
Hypoaspis aculeifer = settings: chronic/long-term; duration: 16 days; mortality
Oncorhynchus mykiss = settings: chronic/long-term; duration: 90 days; development
Typhlodromus pyri = assay: LR50; higher = less toxic; settings: chronic/long-term; duration: 7 days; mortality

CNC(=O)c1cc(Br)[nH]n1 [5-Bromo-N-methyl-1H-pyrazole-3-carboxamide] showed an LD50 (Mus musculus; acute, oral, mortality) of over 2000 mg/kg-day.
Work on Cc1cc(Cl)cc2c(=O)n(C)c(-c3cc(Br)[nH]n3)nc12 [Chlorantraniliprole metabolite (IN-LBA24)] yielded an LD50 (Rattus norvegicus) of over 2000 mg/kg-day.
In the case of CNC(=O)c1cc(Cl)cc(C)c1NC(=O)c1cc(Br)nn1-c1ncccc1Cl [Chlorantraniliprole], the LD50 (Apis mellifera; duration: 48 hours, oral, unspecified) is reported as over 104 µg/piece, the LD50 (Apis mellifera; duration: 72 hours, dermal) is reported as over 4 µg/piece and the NOEC (Bibionidae) is reported as 0.0025 mg/L and 0.005 mg/kg. The NOAEL (Canidae) was 278 mg/kg-day, the LC50 (Colinus virginianus; acute, oral, diet, mortality) was over 1730 mg/kg-day and the LD50 (Colinus virginianus; acute, oral, mortality) was over 2250 mg/kg-day. The NOAEL (Colinus virginianus; reproduction developmental, reproduction) was 10.1 mg/kg-day, the LC50 (Cyprinodon variegatus) was over 12 mg/L and the NOEC (Daphnia magna) was 0.00447 mg/L. For the same compound, the NOEC (Hypoaspis aculeifer) was 100 mg/kg, the NOAEL (Mus musculus; chronic, duration: 18 months, histopathology: nonneoplastic) was 158 mg/kg-day and the NOEC (Oncorhynchus mykiss) was 0.11 mg/L. It also gave an LD50 (Rattus norvegicus) of over 5000 mg/kg-day, an NOAEL (Rattus norvegicus; chronic, duration: 2 years, organ weight) of 156 mg/kg-day and an NOAEL (Rattus norvegicus; reproduction developmental, no effects) of 1200 mg/kg-day. The LC50 (Tagia sp.; acute, duration: 14 days, mortality) was over 1000 mg/kg, the NOEC (Tagia sp.; chronic/long-term, duration: 56 days, reproduction) was 1000 mg/kg and the LR50 (Typhlodromus pyri) was over 750 g/ha.

From EPA's ToxValDB 9.5 (doi:10.2903/j.efsa.2013.3143)
